Holding throughout (format): biochemical
For one test, the target named is PKR(G332S) (Homo sapiens, UniProt P30613, G332S). Briefly: Luminescence Assay Protocol (Kinase Glo Plus), PKR(G332S/with FBP). Conditions: PKRG332S, with FBP; for activation at 1.54 µM: compound 1.54 μM, read-out: C - AC50 LUM KGP FBP % Fold @ 1.54 μM mean; for AC50: gmean, read-out: A - AC50 LUM KGP FBP AC50 μM gmean; for Emax: highest % fold increase at any concentration, read-out: B - AC50 LUM KGP FBP MAX % FOLD mean. In a few lines: (§1)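 Enzyme (wt 0.8 nM, R510Q 0.8 nM, G332S 10 nM) was preincubated 30 min at RT with compound and 100 μM PEP in Tris/KCl/MgCl2 buffer, then started with 100 μM ADP, plus 30 μM FBP for G332S. Luminescence was read after 45 min at RT. AC50 came from a four-parameter fit of % fold over DMSO across 42.5 μM–2.2 nM.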
Background: Kinase-Glo reads ATP consumption through a luciferase reaction.

The target of another test is PKR(R510Q) (Homo sapiens, UniProt P30613, R510Q). In words: Luminescence Assay Protocol (Kinase Glo Plus), PKR(R510Q/without FBP). Conditions: PKRR510Q, without FBP; for activation at 1.54 µM: compound 1.54 μM, read-out: F - AC50 LUM KGP woFBP % Fold @ 1.54 μM mean; for AC50: gmean, read-out: D - AC50 LUM KGP woFBP AC50 μM gmean; for Emax: highest % fold increase at any concentration, read-out: E - AC50 LUM KGP woFBP MAX % FOLD mean. In outline: as §1

Another test deals with PKR(wt) (Homo sapiens, UniProt P30613). Briefly: Luminescence Assay Protocol (Kinase Glo Plus), PKR(Wt/without FBP). The note with it: without FBP; for activation at 1.54 µM: compound 1.54 μM, read-out: I - AC50 LUM KGP woFBP % Fold @ 1.54 μM mean; for AC50: gmean, read-out: G - AC50 LUM KGP woFBP AC50 μM gmean; for Emax: highest % fold increase at any concentration, read-out: H - AC50 LUM KGP woFBP MAX % FOLD mean. In a few lines: as §1

In general, AC50 refers to the concentration at which the activity in the assay is half-maximal.

Chain of PKR(R510Q) (P30613 whole entry R510Q): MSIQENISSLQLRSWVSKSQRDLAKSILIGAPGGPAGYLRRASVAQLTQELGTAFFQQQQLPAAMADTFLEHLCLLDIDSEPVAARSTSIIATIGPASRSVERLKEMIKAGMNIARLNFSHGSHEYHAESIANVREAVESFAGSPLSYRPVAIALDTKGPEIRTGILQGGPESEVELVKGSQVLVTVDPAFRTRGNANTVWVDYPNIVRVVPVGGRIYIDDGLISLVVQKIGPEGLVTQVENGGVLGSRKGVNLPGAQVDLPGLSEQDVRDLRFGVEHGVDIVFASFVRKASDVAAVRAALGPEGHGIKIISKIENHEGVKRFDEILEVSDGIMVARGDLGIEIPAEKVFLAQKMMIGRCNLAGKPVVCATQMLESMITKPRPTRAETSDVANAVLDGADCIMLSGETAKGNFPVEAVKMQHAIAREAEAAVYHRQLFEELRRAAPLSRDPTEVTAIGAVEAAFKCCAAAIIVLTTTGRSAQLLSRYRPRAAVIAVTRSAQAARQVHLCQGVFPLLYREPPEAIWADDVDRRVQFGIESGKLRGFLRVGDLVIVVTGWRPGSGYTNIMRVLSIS
Chain of PKR(G332S) (P30613 whole entry G332S): as the sequence (P30613 whole entry R510Q) above, with G332S, Q510R counted along it
Chain of PKR(wt) (P30613 whole entry): as the sequence (P30613 whole entry R510Q) above, with Q510R counted along it

On to `CN1CCOc2ccc(S(=O)(=O)N3CC4=C(CN(C(=O)C(CO)c5ccccc5)C4)C3)cc21` (stereo not drawn) [Example 46, 3-hydroxy-1-(5-((4-methyl-3,4-dihydro-2H-benzo[b][1,4]oxazin-6-yl)sulfonyl)-3,4,5,6-tetrahydropyrrolo[3,4-c]pyrrol-2(1H)-yl)-2-phenylpropan-1-one], for which, on PKR(G332S), the activation at 1.54 µM lay within 75 to 250%, the AC50 was greater than 40 µM and the Emax lay in the range of 75 to 250%. Besides, on PKR(R510Q), the activation at 1.54 µM was in the range of 75 to 250%, the AC50 is greater than 40 µM and the Emax lay in the range of 75 to 250%. In addition, at PKR(wt), the activation at 1.54 µM is 75 to 250%, the AC50 is no more than 0.1 µM and the Emax is 75 to 250%.
For `CN1CCOc2ccc(S(=O)(=O)N3CC4=C(CN(C(=O)C5CCOC5)C4)C3)cc21` (stereo not drawn) [Example 47, (5-((4-methyl-3,4-dihydro-2H-benzo[b][1,4]oxazin-6-yl)sulfonyl)-3,4,5,6-tetrahydropyrrolo[3,4-c]pyrrol-2(1H)-yl)(tetrahydrofuran-3-yl)methanone], the activation at 1.54 µM at PKR(G332S), at PKR(R510Q) and on PKR(wt) was 75 to 250% in each case. For the same molecule, the AC50 at PKR(G332S) is greater than 40 µM; on PKR(R510Q), 1 to 40 µM; at PKR(wt), 0.1 to 1 µM. Moreover, the figures for the Emax at PKR(G332S), on PKR(R510Q) and at PKR(wt) were 75 to 250%, 250 to 500% and 75 to 250%, respectively.
For `O=C(C(CO)c1ccccc1)N1CC2=C(C1)CN(S(=O)(=O)c1ccc3ncsc3c1)C2` (stereo not drawn) [Example 48, 1-(5-(benzo[d]thiazol-6-ylsulfonyl)-3,4,5,6-tetrahydropyrrolo[3,4-c]pyrrol-2(1H)-yl)-3-hydroxy-2-phenylpropan-1-one], on PKR(G332S), the activation at 1.54 µM fell in the range of 75 to 250%, the AC50 is no more than 0.1 µM and the Emax lay in the range of 75 to 250%. Further, on PKR(R510Q), the activation at 1.54 µM was 250 to 500%, the AC50 was no more than 0.1 µM and the Emax was 250 to 500%. Further, at PKR(wt), the activation at 1.54 µM was in the range of 250 to 500%, the AC50 was no more than 0.1 µM and the Emax was in the range of 250 to 500%.
Regarding `O=C(C(CO)c1ccccc1)N1CC2=C(C1)CN(S(=O)(=O)c1ccc(OC(F)F)cc1)C2` (stereo not drawn) [Example 49, 1-(5-((4-(difluoromethoxy)phenyl)sulfonyl)-3,4,5,6-tetrahydropyrrolo[3,4-c]pyrrol-2(1H)-yl)-3-hydroxy-2-phenylpropan-1-one], on PKR(G332S), the activation at 1.54 µM was 75 to 250%, the AC50 was no more than 0.1 µM and the Emax lay within 75 to 250%. Further, on PKR(R510Q), the activation at 1.54 µM was 250 to 500%, the AC50 is no more than 0.1 µM and the Emax fell in the range of 250 to 500%. In addition, on PKR(wt), the activation at 1.54 µM was in the range of 250 to 500%, the AC50 is no more than 0.1 µM and the Emax was in the range of 250 to 500%.
With `O=C([C@H](CO)c1ccccc1)N1CC2=C(C1)CN(S(=O)(=O)c1cccnc1)C2` [Example 50, (2S)-3-hydroxy-2-phenyl-1-[5-(pyridine-3-sulfonyl)-1H,2H,3H,4H,5H,6H-pyrrolo[3,4-c]pyrrol-2-yl]propan-1-one], the activation at 1.54 µM lay in the range of 75 to 250% on PKR(G332S), 250 to 500% at PKR(R510Q) and 75 to 250% on PKR(wt). The AC50 on PKR(G332S), at PKR(R510Q) and on PKR(wt) was 0.1 to 1 µM throughout. In addition, the Emax was in the range of 75 to 250% on PKR(G332S), 250 to 500% at PKR(R510Q) and 250 to 500% at PKR(wt).
For the molecule `O=C([C@H](CO)c1ccccc1)N1CC2=C(C1)CN(S(=O)(=O)c1ccccn1)C2` [Example 51, (2S)-3-hydroxy-2-phenyl-1-[5-(pyridine-2-sulfonyl)-1H,2H,3H,4H,5H,6H-pyrrolo[3,4-c]pyrrol-2-yl]propan-1-one], at PKR(G332S), the activation at 1.54 µM is 75 to 250%, the AC50 fell in the range of 0.1 to 1 µM and the Emax was 75 to 250%. At PKR(R510Q), the activation at 1.54 µM is 250 to 500%, the concentration at half-maximal activity (AC50) was no more than 0.1 µM and the Emax fell in the range of 250 to 500%. Besides, at PKR(wt), the activation at 1.54 µM fell in the range of 250 to 500%, the AC50 was no more than 0.1 µM and the Emax lay in the range of 250 to 500%.
Regarding `O=C([C@H](CO)c1ccccc1)N1CC2=C(C1)CN(S(=O)(=O)c1ccc(C(F)(F)F)nc1)C2` [Example 52, (2S)-3-hydroxy-2-phenyl-1-(5-{[6-(trifluoromethyl)pyridin-3-yl]sulfonyl}-1H,2H,3H,4H,5H,6H-pyrrolo[3,4-c]pyrrol-2-yl)propan-1-one], at PKR(G332S), the activation at 1.54 µM lay in the range of 75 to 250%, the AC50 fell in the range of 0.1 to 1 µM and the Emax lay within 75 to 250%. Besides, on PKR(R510Q), the activation at 1.54 µM was 75 to 250%, the AC50 lay in the range of 1 to 40 µM and the Emax was in the range of 250 to 500%. Moreover, on PKR(wt), the activation at 1.54 µM lay within 75 to 250%, the AC50 is 0.1 to 1 µM and the Emax fell in the range of 75 to 250%.
Regarding `COCCC(=O)N1CC2=C(C1)CN(S(=O)(=O)c1ccc3c(c1)N(C)CCO3)C2` [Example 53, 3-methoxy-1-(5-((4-methyl-3,4-dihydro-2H-benzo[b][1,4]oxazin-6-yl)sulfonyl)-3,4,5,6-tetrahydropyrrolo[3,4-c]pyrrol-2(1H)-yl)propan-1-one], the activation at 1.54 µM on PKR(G332S), at PKR(R510Q) and on PKR(wt) was 75 to 250% each time. For the same molecule, the AC50 was greater than 40 µM on PKR(G332S), 1 to 40 µM on PKR(R510Q) and 0.1 to 1 µM on PKR(wt). Besides, the Emax on PKR(G332S), on PKR(R510Q) and at PKR(wt) was 75 to 250% in each case.

Values taken from patent publication US11649242B2, “Pyrrolopyrrole compositions as pyruvate kinase (PKR) activators” (FORMA Therapeutics, Inc., priority 2017, dated 2023).
